From ChEMBL document CHEMBL1201862, “PubChem BioAssay data set” (2004)
Each block holds one compound with its values, some of them ahead of it. Calls of active or inactive are those of the source.

Assays:
Assay type in all cases: functional
[1] = target: Activin receptor type-1 (Homo sapiens, UniProt Q04771); assay: Navigating the Kinome. Panel member name: ACVR1
[2] = target: Dual specificity protein kinase CLK4 (Homo sapiens, UniProt Q9HAZ1)
[3] = target: Serine/threonine-protein kinase pim-1 (Homo sapiens, UniProt P11309)
Serine/threonine-protein kinase pim-1, sequence (P11309 whole entry): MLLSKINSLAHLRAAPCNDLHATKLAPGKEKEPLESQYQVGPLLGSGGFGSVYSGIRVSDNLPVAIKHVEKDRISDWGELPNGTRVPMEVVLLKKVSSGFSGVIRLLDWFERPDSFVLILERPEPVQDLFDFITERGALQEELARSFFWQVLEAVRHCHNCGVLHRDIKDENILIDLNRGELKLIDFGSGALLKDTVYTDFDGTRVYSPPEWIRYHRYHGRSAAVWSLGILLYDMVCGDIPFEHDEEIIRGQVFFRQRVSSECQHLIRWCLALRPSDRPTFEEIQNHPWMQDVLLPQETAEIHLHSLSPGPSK

[4] = target: Cell division cycle 7-related protein kinase (Homo sapiens, UniProt O00311);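 note: value obtained from a kinome-wide kinase panel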
Cell division cycle 7-related protein kinase, sequence (O00311 whole entry): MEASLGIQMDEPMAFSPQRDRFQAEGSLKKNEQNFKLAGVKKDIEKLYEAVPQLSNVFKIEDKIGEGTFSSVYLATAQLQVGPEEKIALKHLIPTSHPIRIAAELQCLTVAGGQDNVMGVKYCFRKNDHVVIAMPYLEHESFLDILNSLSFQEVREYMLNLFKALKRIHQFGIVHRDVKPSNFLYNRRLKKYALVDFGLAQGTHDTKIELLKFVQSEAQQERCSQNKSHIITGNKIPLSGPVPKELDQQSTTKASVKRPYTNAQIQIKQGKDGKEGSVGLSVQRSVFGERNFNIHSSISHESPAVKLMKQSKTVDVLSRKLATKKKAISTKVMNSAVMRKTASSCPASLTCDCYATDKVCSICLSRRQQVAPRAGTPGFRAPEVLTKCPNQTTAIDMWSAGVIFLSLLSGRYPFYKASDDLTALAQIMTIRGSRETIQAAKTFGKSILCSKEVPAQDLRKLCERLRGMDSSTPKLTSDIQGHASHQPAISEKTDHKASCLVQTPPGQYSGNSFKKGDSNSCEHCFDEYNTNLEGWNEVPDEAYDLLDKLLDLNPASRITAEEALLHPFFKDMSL

[5] = target: Homeodomain-interacting protein kinase 2 (Homo sapiens, UniProt Q9H2X6);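 note: measured within a kinome-wide kinase profiling panel, HIPK2 being one panel member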
Homeodomain-interacting protein kinase 2, sequence (Q9H2X6 whole entry): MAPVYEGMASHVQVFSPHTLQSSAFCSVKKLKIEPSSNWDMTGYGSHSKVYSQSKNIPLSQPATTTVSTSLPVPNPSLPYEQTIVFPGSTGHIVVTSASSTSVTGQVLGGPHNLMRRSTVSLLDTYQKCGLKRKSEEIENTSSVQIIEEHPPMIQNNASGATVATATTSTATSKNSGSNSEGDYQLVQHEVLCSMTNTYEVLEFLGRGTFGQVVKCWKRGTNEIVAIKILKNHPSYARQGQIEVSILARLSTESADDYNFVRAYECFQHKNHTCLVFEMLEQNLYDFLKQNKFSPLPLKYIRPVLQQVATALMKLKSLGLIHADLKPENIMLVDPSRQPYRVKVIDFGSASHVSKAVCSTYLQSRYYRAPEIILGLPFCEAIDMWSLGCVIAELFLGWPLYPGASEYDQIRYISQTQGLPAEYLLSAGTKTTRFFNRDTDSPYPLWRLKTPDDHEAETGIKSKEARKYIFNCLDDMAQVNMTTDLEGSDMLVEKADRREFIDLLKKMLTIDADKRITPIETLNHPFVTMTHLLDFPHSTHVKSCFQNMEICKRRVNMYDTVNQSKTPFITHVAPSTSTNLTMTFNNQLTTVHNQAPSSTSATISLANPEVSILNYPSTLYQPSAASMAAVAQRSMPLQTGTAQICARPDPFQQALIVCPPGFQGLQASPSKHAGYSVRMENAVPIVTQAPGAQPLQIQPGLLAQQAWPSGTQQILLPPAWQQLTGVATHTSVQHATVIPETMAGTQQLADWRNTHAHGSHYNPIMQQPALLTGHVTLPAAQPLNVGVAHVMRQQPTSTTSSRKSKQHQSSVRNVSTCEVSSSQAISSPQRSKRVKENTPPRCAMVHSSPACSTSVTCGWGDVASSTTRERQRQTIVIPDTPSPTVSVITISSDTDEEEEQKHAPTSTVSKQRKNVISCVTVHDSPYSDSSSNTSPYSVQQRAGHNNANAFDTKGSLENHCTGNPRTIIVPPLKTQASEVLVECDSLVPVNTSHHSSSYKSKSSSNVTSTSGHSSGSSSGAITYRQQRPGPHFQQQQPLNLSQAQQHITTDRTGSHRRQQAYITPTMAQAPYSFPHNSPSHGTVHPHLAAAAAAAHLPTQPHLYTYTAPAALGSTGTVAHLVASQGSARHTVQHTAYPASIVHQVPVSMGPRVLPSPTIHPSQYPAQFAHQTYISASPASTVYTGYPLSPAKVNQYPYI

[6] = target: MAP kinase-interacting serine/threonine-protein kinase 2 (Homo sapiens, UniProt Q9HBH9)
[7] = target: Interleukin-1 receptor-associated kinase 4 (Homo sapiens, UniProt Q9NWZ3)
Interleukin-1 receptor-associated kinase 4, sequence (Q9NWZ3 whole entry): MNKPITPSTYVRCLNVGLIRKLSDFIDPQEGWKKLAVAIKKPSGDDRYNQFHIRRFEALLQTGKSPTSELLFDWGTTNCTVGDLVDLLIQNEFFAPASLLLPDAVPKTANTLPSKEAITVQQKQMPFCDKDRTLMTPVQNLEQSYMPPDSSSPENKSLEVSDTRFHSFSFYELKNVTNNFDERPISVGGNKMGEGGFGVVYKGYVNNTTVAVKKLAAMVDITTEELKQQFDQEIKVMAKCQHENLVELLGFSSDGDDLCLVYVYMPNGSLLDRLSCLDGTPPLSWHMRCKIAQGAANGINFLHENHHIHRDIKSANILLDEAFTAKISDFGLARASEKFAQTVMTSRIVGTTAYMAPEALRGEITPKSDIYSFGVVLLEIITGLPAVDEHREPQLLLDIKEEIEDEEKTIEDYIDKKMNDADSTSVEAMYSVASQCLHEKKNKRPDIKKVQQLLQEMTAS

[8] = target: Glycogen synthase kinase-3 beta (Homo sapiens, UniProt P49841);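 note: value comes from a broad kinome profiling panel, with GSK3B as the panel member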
Glycogen synthase kinase-3 beta, sequence (P49841 whole entry): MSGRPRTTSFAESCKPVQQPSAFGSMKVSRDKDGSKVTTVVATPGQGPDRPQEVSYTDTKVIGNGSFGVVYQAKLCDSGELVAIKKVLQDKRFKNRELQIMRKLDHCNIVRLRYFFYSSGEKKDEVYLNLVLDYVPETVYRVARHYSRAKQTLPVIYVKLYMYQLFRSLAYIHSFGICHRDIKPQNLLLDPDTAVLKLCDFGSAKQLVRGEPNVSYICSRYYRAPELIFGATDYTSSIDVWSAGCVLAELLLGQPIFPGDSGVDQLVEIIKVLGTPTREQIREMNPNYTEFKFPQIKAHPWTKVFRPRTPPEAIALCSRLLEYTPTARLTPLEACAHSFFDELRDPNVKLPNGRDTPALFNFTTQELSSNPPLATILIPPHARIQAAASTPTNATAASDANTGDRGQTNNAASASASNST

[9] = target: cAMP-dependent protein kinase catalytic subunit alpha (Homo sapiens, UniProt P17612)
[10] = target: Mitogen-activated protein kinase kinase kinase kinase 4 (Homo sapiens, UniProt O95819)
[11] = target: T1, High affinity choline transporter 1 (Homo sapiens, UniProt Q9GZV3); assay: CHT activators, dose response, cell-based, 10-point CRC, membrane potential dye (AID 602376)
T1 sequence (Q9GZV3 whole entry): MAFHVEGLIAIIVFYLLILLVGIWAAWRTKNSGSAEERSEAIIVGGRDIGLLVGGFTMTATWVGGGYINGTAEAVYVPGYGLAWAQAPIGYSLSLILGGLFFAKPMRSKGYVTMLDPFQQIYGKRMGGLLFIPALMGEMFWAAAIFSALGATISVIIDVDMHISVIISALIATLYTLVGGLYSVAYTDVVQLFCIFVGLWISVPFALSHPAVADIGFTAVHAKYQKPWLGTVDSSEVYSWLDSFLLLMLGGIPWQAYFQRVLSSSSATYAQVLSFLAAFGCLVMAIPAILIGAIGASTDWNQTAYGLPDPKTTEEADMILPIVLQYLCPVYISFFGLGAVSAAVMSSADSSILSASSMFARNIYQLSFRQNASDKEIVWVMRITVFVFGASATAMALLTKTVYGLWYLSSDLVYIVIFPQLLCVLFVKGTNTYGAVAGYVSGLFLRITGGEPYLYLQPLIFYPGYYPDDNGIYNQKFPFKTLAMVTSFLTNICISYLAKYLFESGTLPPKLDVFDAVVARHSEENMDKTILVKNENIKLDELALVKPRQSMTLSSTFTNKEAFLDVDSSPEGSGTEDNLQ

[12] = test system: CHO-K1; assay: (§1) Counterscreen for antagonists of the orexin 1 receptor (OX1R; HCRTR1): Homogeneous time resolved fluorescence (HTRF)-based cell-based dose response assay to identify antagonists of the parental CHO-K1 cell line. [Related pubchem assays (depositor defined):AID434989, AID435008, AID463079, AID485270, AID492963, AID492964, AID492965, AID493232, AID504699, AID504701]; conditions: Cricetulus griseus
[13] = as §1, with “Fluorescence-based” for “Homogeneous time resolved fluorescence (HTRF)-based”, “cell-based high throughput” for “cell-based”, “CHO” for “CHO-K1”
[14] = target: T2, Orexin/Hypocretin receptor type 1 (Homo sapiens, UniProt O43613); assay: Homogeneous Time Resolved Fluorescence (HTRF)-based cell-based high throughput dose response assay for antagonists of the orexin 1 receptor (OX1R; HCRTR1). [Related pubchem assays (depositor defined):AID434989, AID435008, AID463079, AID485270, AID492963, AID492964, AID492965, AID493232, AID504717, AID504718]
T2 sequence (O43613 whole entry): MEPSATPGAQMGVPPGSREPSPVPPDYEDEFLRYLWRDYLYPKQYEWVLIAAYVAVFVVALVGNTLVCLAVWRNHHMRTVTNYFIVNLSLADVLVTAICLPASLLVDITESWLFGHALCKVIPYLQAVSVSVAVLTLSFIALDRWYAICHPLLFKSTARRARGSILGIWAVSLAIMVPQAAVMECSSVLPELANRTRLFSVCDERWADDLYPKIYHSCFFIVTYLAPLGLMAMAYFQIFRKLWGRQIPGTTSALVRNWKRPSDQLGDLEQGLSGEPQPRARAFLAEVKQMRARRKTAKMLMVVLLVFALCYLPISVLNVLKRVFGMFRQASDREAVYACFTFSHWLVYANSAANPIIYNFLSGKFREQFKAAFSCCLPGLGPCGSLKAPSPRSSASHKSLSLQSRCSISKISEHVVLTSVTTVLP

[15] = target: T2, Orexin/Hypocretin receptor type 1; assay: Fluorescence-based cell-based high throughput dose response assay for antagonists of the orexin 1 receptor (OX1R; HCRTR1). [Related pubchem assays (depositor defined):AID434989, AID435008, AID463079, AID485270, AID492963, AID492964, AID492965, AID493232, AID504717, AID504718]
[16] = target: T3, Orexin receptor type 2 (Homo sapiens, UniProt O43614); assay: Counterscreen assay for antagonists of the orexin 1 receptor (OX1R; HCRTR1): Fluorescence-based cell-based dose response assay for antagonists of the orexin 2 receptor (OX2R; HCRTR2), run by assay provider.
T3 sequence (O43614 whole entry): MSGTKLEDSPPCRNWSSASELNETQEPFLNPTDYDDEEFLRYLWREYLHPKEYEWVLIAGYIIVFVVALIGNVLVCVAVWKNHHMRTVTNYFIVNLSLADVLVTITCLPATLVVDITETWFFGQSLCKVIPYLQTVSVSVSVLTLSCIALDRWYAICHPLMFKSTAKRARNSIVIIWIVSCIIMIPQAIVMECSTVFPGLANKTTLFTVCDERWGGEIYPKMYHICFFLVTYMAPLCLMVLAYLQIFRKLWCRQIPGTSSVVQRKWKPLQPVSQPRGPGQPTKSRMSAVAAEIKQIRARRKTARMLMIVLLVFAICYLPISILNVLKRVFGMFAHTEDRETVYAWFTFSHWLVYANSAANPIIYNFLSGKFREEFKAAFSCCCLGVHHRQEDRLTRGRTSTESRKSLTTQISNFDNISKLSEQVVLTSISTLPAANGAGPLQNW

[17] = target: T3, Orexin receptor type 2; assay: Counterscreen assay for antagonists of the orexin 1 receptor (OX1R; HCRTR1): Homogeneous Time Resolved Fluorescence (HTRF)-based cell-based dose response assay for antagonists of the orexin 2 receptor (OX2R; HCRTR2), run by assay provider.

Dual specificity protein kinase CLK4, sequence (Q9HAZ1 whole entry): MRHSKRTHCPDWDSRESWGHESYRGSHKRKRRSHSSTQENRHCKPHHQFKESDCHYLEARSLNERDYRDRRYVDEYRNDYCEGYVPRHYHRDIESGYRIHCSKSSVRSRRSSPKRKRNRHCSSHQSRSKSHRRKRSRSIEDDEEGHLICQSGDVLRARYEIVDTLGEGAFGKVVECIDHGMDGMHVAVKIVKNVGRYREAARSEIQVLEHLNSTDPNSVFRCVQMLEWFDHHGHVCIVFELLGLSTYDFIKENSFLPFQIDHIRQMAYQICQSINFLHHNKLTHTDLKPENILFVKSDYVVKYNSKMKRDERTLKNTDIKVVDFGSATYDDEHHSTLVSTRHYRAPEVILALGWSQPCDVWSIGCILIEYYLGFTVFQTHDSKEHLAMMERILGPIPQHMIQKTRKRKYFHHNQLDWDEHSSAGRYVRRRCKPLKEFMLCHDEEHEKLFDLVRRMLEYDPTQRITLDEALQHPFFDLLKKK
Activin receptor type-1, sequence (Q04771 whole entry): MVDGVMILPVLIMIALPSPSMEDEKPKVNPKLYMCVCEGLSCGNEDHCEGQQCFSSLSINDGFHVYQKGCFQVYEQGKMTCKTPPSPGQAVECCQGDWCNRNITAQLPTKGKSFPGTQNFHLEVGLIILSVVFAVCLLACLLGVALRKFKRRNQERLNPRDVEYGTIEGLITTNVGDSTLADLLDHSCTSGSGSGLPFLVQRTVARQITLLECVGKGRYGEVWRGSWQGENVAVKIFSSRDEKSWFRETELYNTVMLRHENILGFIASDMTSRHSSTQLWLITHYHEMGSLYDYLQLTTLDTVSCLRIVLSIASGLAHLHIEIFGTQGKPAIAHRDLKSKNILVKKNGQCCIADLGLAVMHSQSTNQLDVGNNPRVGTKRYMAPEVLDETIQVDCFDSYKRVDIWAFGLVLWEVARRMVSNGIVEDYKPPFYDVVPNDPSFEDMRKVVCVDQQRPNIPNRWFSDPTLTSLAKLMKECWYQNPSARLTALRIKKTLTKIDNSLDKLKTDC

- Ki [1]: 1260 nM (active)
- Ki [2]: 2510 nM (active)
SMILES: O=C(Nc1cccc(C(F)(F)F)n1)Nc1ccnc2cc(F)ccc12

- Ki [3]: 1260 nM (active)
- Ki [4]: 20 nM (active)
- Ki [5]: 316 nM (active)
- Ki [6]: 25.1 nM (active)
- Ki [7]: 15.8 nM (active)
- Ki [8]: 126 nM (active)
- Ki [9]: 12.6 nM (active)
- Ki [2]: 3.16 nM (active)
- Ki [10]: 15.8 nM (active)
SMILES: CC(C)(Nc1nccc(-c2c[nH]c3ncccc23)n1)c1ccccc1

SMILES: c1ccc(Cn2c[n+](Cc3ccccc3)c3ccccc32)cc1
- EC50 [11]: 5760 nM (active)

SMILES: CCc1cc2c(SCC(=O)N(CC)c3c(N)n(Cc4ccccc4)c(=O)[nH]c3=O)ncnc2s1
- IC50 [12]: > 66200 nM (inactive)
- IC50 [13]: > 49800 nM (inactive)
- IC50 [14]: 340 nM (active)
- IC50 [15]: 6120 nM (active)
- IC50 [16]: 31500 nM (inactive)
- IC50 [17]: 1710 nM (active)
